Experimental data published in patent US7993884B2, “Beta-xylosidase for conversion of plant cell wall carbohydrates to simple sugars” (The United States of America as represented by the …, priority 2006, dated 2011).
Several values for one entry are separate records, joined by “and”; a condition that tells them apart may be missing. Identical values can stand only once. Like-named read-outs stand apart in the source and are kept apart here.

How the values were obtained:
SXA [1] = target: T1, SXA (Selenomonas ruminantium, UniProt O52575); experiment: biochemical
From the text: (§1) Concentrations of D-xylose produced versus time were fitted to lines for determination of initial rates. For determination of steady-state kinetic parameters, initial rates were fitted to Eq. 2 (competitive inhibition).

SXA [2] = target: T1, SXA; experiment: SXA-catalyzed hydrolysis of 4NP-glycoside substrates, initial rates (Methods A and B); assay type: biochemical;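 further: initial rates from 4-nitrophenol release, tracked by absorbance over roughly 0.3 min and converted using product-minus-substrate extinction differences, in 1 mL mixtures started by enzyme addition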
Method: (§2) Two methods were employed for determining initial rates. […] Initial rates were calculated from fitting the absorbance readings versus time to a line (minimum of 4 points per reaction progression) and by using an extinction coefficient of 17.4 mM^−1 cm^−1. In Method B (continuous monitoring), temperature-equilibrated reactions (1 mL) were monitored at 380 nm (for pH values below 6) or 400 nm (for pH values of 6 and above). Reactions were generally monitored 0.3 min for initial rate determinations. Delta extinction coefficients (product-substrate) used for molar conversion were determined by subtracting the absorbance of substrate (at pH 5 so even very minor contaminating 4NP would not contribute) from the absorbance of 4NP for each reaction condition. […] The concentration of 4NP substrates was determined by incubating the substrate with excess enzyme until an end point was reached, adding an aliquot (0.01 to 0.1 mL) to 0.1 M NaOH, recording the absorbance at 400 nm and using the extinction coefficient of 18.3 cm^−1mM^−1. Unless indicated otherwise, for both Methods A and B, reactions were initiated by adding a small aliquot of enzyme (generally 7 μl of enzyme diluted into 10 mM sodium phosphate, pH 7.0, and incubated on wet ice or at ˜25° C.) to the 1-mL, temperature-equilibrated (25° C.) reaction mixtures. For pH studies, buffers of constant ionic strength (I=0.3 M), adjusted with NaCl, were used as indicated: 100 mM succinate-NaOH (pH 4.3-6), 100 mM sodium phosphate (pH 6-8), 30 mM sodium pyrophosphate (pH 8-9), glycine-NaOH (pH 9) and glycylglycine-NaOH (pH 9).

SXA [3] = target: T1, SXA; experiment: biochemical; details: read-out: Km^4NPX; 100 mM succinate-NaOH, pH 5.3, 25° C.
SXA [4] = target: T1, SXA; details: for relative kcat values: pH 5.3 and 25° C., relative to A2
Method: Samples (25 μL) were injected onto the column equilibrated with 0.1 M NaOH and developed with a 15-min linear gradient (0.1 M NaOH to 15 mM sodium acetate) at ˜25° C. and a flow rate of 1 mL min^−1.
Before (time=0 min) and after (time=1-6 min) initiating reactions with enzyme (7 μL), samples (0.05-0.1 mL) were removed and quenched with an equal volume of 0.5 M acetic acid and frozen. Following lyophilization, samples were dissolved in H2O and analyzed by HPLC. […] Results from two replicate reactions were combined to provide data points for the progress curves.
Before and after addition of enzyme (7 μL), 25-μl aliquots of the reaction mixtures were directly injected onto the HPLC column for quantification of product L-arabinose.

SXA [5] = target: T1, SXA; details: read-out: Km^4NPX; pH 5.3, 25° C., HPLC of D-xylose
From the text: as §1

[6] = target: Selenomonas ruminantium GA192 β-D-xylosidase (SXA, parent SEQ ID NO: 2) variant D127A (Pseudoselenomonas ruminantium, UniProt O52575, D127A); experiment: Steady-state kinetics of SXA mutant D127A with 4NPX
Method: (§3) Site-directed mutagenesis was performed using the QuikChange site-directed mutagenesis kit (Stratagene) according the manufacturer's instructions. […] Complete sequences were determined on a 3700 sequencer (Applied Biosystems) using T7 promoter and specific primers to confirm that only the intended mutations had been introduced. Lasergene software (DNAStar) was used to analyze the sequence data. pSRA1 and its mutated plasmids were used for the transformation of E. coli BL21(DE3). Transformants were inoculated to 50 mL Luria-Bertani (LB) broth supplemented with 50 mg ampicillin/mL and the flask was shaken overnight at 250 rpm and 37° C. Twenty mL of the overnight culture were transferred to a 2.8-liter baffled flask containing 1.0 liter SOB medium [2.0% tryptone, 0.5% yeast extract, 0.05% NaCl, 0.0186% KCl (all in wt/vol) and 10 mM MgSO4] supplemented with 50 mg ampicillin/mL. The culture was shaken at 250 rpm and 37° C. […] Cells were harvested by centrifugation and cell pellets were stored at −80° C. until use.
(§4) Initial purification steps and diafiltration steps were performed at 4° C. Chromatography was at room temperature (˜24° C.). Cells were thawed, suspended in 40 mL of 50 mM Tris-HCl, pH 7.5 (Buffer A) containing Complete protease inhibitor cocktail (Roche) and disrupted by sonication. […] The column was washed until absorbance at 280 nm of the eluate became minimal (˜200 mL) and developed with a 500-mL linear gradient (Buffer A+30% saturated ammonium sulfate to Buffer A).
(§5) Two methods were employed for determining initial rates. […] Initial rates were calculated from fitting the absorbance readings versus time to a line (minimum of 4 points per reaction progression) and by using an extinction coefficient of 17.4 mM^−1 cm^−1. […] The concentration of 4NP substrates was determined by incubating the substrate with excess enzyme until an end point was reached, adding an aliquot (0.01 to 0.1 mL) to 0.1 M NaOH, recording the absorbance at 400 nm and using the extinction coefficient of 18.3 cm^−1mM^−1. […]

[7] = target: Selenomonas ruminantium GA192 β-D-xylosidase (SXA, parent SEQ ID NO: 2) variant H248A (Pseudoselenomonas ruminantium, UniProt O52575, H248A); experiment: Steady-state kinetics of SXA mutant H248A with 4NPX
Method: as §3, §4, §5

[8] = target: Selenomonas ruminantium GA192 β-D-xylosidase (SXA, parent SEQ ID NO: 2) variant R290A (Pseudoselenomonas ruminantium, UniProt O52575, R290A); experiment: Steady-state kinetics of SXA mutant R290A with 4NPX
Method: as §3
(§6) Initial purification steps and diafiltration steps were performed at 4° C. Chromatography was at room temperature (˜24° C.). Cells were thawed, suspended in 40 mL of 50 mM Tris-HCl, pH 7.5 (Buffer A) containing Complete protease inhibitor cocktail (Roche) and disrupted by sonication. Following centrifugation, the supernatant was brought to 30% saturation with respect to ammonium sulfate and centrifuged. […] The column was washed until absorbance at 280 nm of the eluate became minimal (˜200 mL) and developed with a 500-mL linear gradient (Buffer A+30% saturated ammonium sulfate to Buffer A).
(§7) Two methods were employed for determining initial rates. […] Initial rates were calculated from fitting the absorbance readings versus time to a line (minimum of 4 points per reaction progression) and by using an extinction coefficient of 17.4 mM^−1 cm^−1. […] The concentration of 4NP substrates was determined by incubating the substrate with excess enzyme until an end point was reached, adding an aliquot (0.01 to 0.1 mL) to 0.1 M NaOH, recording the absorbance at 400 nm and using the extinction coefficient of 18.3 cm^−1mM^−1. Unless indicated otherwise, for both Methods A and B, reactions were initiated by adding a small aliquot of enzyme (generally 7 μl of enzyme diluted into 10 mM sodium phosphate, pH 7.0, and incubated on wet ice or at ˜25° C.) to the 1-mL, temperature-equilibrated (25° C.) reaction mixtures. For pH studies, buffers of constant ionic strength (I=0.3 M), adjusted with NaCl, were used as indicated: 100 mM succinate-NaOH (pH 4.3-6), 100 mM sodium phosphate (pH 6-8), 30 mM sodium pyrophosphate (pH 8-9), glycine-NaOH (pH 9) and glycylglycine-NaOH (pH 9).

[9] = target: Selenomonas ruminantium GA192 β-D-xylosidase (SXA, parent SEQ ID NO: 2) variant D14A (Pseudoselenomonas ruminantium, UniProt O52575, D14A); experiment: Steady-state kinetics of SXA mutant D14A with 4NP substrates
Method: as §3, §6, §7

[10] = target: Selenomonas ruminantium GA192 β-D-xylosidase (SXA, parent SEQ ID NO: 2) variant E186A (Pseudoselenomonas ruminantium, UniProt O52575, E186A); experiment: Steady-state kinetics of SXA mutant E186A with 4NP substrates
Method: as §3, §6, §7

[11] = target: T2, Selenomonas ruminantium GA192 β-D-xylosidase (SXA), wild type, SEQ ID NO: 2 (Pseudoselenomonas ruminantium, UniProt O52575); experiment: Steady-state kinetics of SXA with 4NPX2, A2 and X2-X6 by HPLC (Example 1); details: for relative kcat value: A2 = 1
[12] = target: T2, Selenomonas ruminantium GA192 β-D-xylosidase (SXA), wild type, SEQ ID NO: 2; experiment: Steady-state kinetics of SXA with 4NP-glycosides (Example 1, Methods A and B)
Method: Kinetics with 4NP Substrates
as §2

[13] = target: T2, Selenomonas ruminantium GA192 β-D-xylosidase (SXA), wild type, SEQ ID NO: 2; experiment: Steady-state kinetics of SXA with X2-X6, improved quenching, HPLC (Example 3); details: for factor by which kcat is higher than that of the Bacillus pumilus enzyme: SXA pH 5.3 vs B. pumilus pH 7.15, 25° C
Method: (§8) Samples (25 μL) were injected onto the column equilibrated with 0.1 M NaOH and developed with a 5-min linear gradient (0.1 M NaOH to 33 mM sodium acetate) at ˜25° C. and a flow rate of 1 mL min^−1.
(§9) Samples were kept on wet ice or the HPLC autosampler at 5° C. until analyzed by HPLC. Initial rates, calculated from linear regressions of the [D-xylose] produced versus time, were fitted to Eq. 1 to determine steady-state kinetic parameters.

SXA [14] = target: T1, SXA
Method: as §8, §9

[15] = target: T3, enzyme from Bacillus pumilus (Bacillus pumilus, UniProt P07129); details: pH 7, 25° C.; cited from earlier work
T3 sequence (P07129 1-535): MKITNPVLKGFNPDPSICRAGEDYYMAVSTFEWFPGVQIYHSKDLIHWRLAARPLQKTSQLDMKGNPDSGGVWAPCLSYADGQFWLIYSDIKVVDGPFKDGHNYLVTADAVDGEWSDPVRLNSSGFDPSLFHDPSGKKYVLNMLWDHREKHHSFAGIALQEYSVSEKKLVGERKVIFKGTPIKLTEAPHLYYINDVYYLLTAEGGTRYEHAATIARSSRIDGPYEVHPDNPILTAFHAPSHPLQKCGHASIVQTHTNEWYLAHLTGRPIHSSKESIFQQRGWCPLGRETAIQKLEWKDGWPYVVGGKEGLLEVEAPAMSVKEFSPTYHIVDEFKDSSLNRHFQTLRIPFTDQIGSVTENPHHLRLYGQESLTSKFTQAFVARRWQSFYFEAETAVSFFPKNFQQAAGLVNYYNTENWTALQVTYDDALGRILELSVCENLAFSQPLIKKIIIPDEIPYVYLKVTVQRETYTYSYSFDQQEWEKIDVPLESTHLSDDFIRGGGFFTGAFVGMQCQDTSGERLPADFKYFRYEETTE

[16] = tested on: Bacillus pumilus β-xylosidase; details: pH 7, 25° C.; cited from earlier work
[17] = Exper. 1: succinate pH 5.3, Method A, η/ηo 1.00
[18] = Exper. 1: succinate pH 5.3, Method A, η/ηo 6.12 (50% sucrose)
[19] = Exper. 2: MES pH 6.00, Method B, η/ηo 1.00
[20] = Exper. 2: MES pH 6.00, Method B, η/ηo 6.85 (50% sucrose)
[21] = I=0.3 M, 25° C., Eq. 7 (4NPX), Eq. 5 (4NPA)
[22] = 100 mM succinate-NaOH, pH 5.3, 25° C, Method A
[23] = same reaction conditions, pH 5.3, 25° C.
[24] = 100 mM succinate-NaOH, pH 5.3, 25° C

O=[N+]([O-])c1ccc(O)cc1 [4NP, 4-nitrophenol]
Ki (SXA [1]): 6.28 ± 0.55 mM

O=[N+]([O-])c1ccc(O[C@@H]2OC[C@@H](O)[C@H](O)[C@H]2O)cc1 [4NPX, 4-nitrophenyl-β-D-xylopyranoside]
pH-independent kcat (SXA [2]): 32.7±0.5 s^−1 | pH-independent kcat/Km (SXA [2]): 58.7±1.3 s^−1 mM^−1 | Relative Rate (SXA [2]; 5 mM 4NP glycoside, 100 mM succinate-NaOH, pH 5.3, 25° C., Method A, initial rate relative to 4NPX): 1.00 ± 0.01 | Km (SXA [2]; 100 mM sodium phosphate, pH 7.0, 25° C., Method B): 443 ± 8 µM | pH-independent 1/Km (SXA [2]; 1/Km versus pH, Eq. 4 (4NPX), Eq. 5 (4NPA)): 2.65±0.081 mM^−1 | pKa of 1/Km versus pH (single protonatable group) (SXA [2]; Eq. 4): 5.6 and 5.56±0.08 | Km (SXA [2]; [17]): 742 ± 41 µM | kcat Rel. to η/ηo = 1 (SXA [2]; [17]): 1.00 | Km (SXA [2]; [18]): 690 ± 35 µM | kcat Rel. to η/ηo = 1 (SXA [2]; [18]): 0.910 ± 0.0152 | Km (SXA [2]; [19]): 699 ± 35 µM | kcat Rel. to η/ηo = 1 (SXA [2]; [19]): 1.00 | Km (SXA [2]; [20]): 637 ± 81 µM | kcat Rel. to η/ηo = 1 (SXA [2]; [20]): 0.920 ± 0.040 | pKa1 of kcat versus pH (SXA [2]; I=0.3 M, 25° C., Eq. 5): 3.5 and ~3.6 and 3.54±0.10 | pKa1 of kcat/Km versus pH (SXA [2]; I=0.3 M, 25° C., Eq. 5): ~5.0 and 5.00±0.04 | pKa2 of kcat versus pH (SXA [2]; I=0.3 M, 25° C., Eq. 5): 6.9 and 6.90±0.03 | pKa2 of kcat/Km versus pH (SXA [2]; I=0.3 M, 25° C., Eq. 5): 7.23±0.04 | pKa1 of 1/Km versus pH (SXA [2]; [21]): 4.8 and 4.81±0.21 | pKa2 of 1/Km versus pH (SXA [2]; [21]): 6.4 and 6.39±0.26 | higher affinity of dianionic SXA (D14^−E186^−) than monoanionic SXA (D14^−E186^H) (SXA [2]; from pH dependency of 1/Km): ~2 fold and 1.9 fold | factor by which kcat of SXA is higher than that of the B. pumilus enzyme (SXA [2]; substrate 4NPX, SXA pH 5.3, 25° C. (Example 1) vs B. pumilus pH 7.15, 25° C.): 4 | Km (SXA [3]): 716 ± 32 µM | relative kcat values (SXA [4]): 340 | Km (SXA [5]): 758 ± 59 µM | kcat [6, 22]: 0.000129 ± 0.000003 s⁻¹ | factor by which kcat is degraded vs wild type ([6]; pH 5.3, 25° C.): 24000 | kcat [7, 22]: 0.0950 ± 0.0025 s⁻¹ | factor by which kcat is degraded vs wild type ([7]; pH 5.3, 25° C.): 330 | kcat ([8]; 100 mM succinate-NaOH, pH 5.3, 25° C, Method A, not well determined (highest 4NPX 5 mM)): 0.0126 ± 0.0020 s⁻¹ | factor by which kcat is degraded vs wild type ([8]; pH 5.3, 25° C.): 2500 | increase of Km(4NPX) vs wild type ([8]; pH 5.3, 25° C.): 70 fold | kcat [9, 22]: 0.00954 ± 0.00016 s⁻¹ | factor by which kcat is degraded vs wild type ([9]; pH 5.3, 25° C.): 3300 | kcat [10, 22]: 0.00267 ± 0.00005 s⁻¹ | factor by which kcat is degraded vs wild type ([10]; pH 5.3, 25° C.): 12000 | relative kcat value ([11]; pH 5.3, 25° C): 340 | kcat ([12]; 100 mM MES-NaOH, pH 6.00, 25° C, Method B, 50% sucrose, η/ηo 6.85): 30.1 ± 1.1 s⁻¹ | kcat ([12]; 100 mM MES-NaOH, pH 6.00, 25° C, Method B, η/ηo 1.00): 32.9 ± 0.5 s⁻¹ | kcat ([12]; 100 mM succinate-NaOH, pH 5.3, 25° C, Method A, no sucrose): 32.8 ± 0.6 s⁻¹ and 31.1 ± 0.4 s⁻¹ | affinity of dianionic SXA (D14^−E186^−), higher than that of monoanionic SXA (D14^−E186^H) ([12]; from pH dependence of 1/Km): ~2 fold and 1.9 fold | kcat ([12]; pH 5.3, 25° C, Method A, 50% sucrose, η/ηo 6.12): 29.8 ± 0.5 s⁻¹ | kcat Rel. to η/ηo = 1 ([12]; pH 5.3, η/ηo 6.12): 0.910 ± 0.0152 | kcat Rel. to η/ηo = 1 ([12]; pH 6.00, η/ηo 6.85): 0.920 ± 0.040 | pH-independent kcat ([12]; pH profile, I=0.3 M, Method B): 32.7±0.5 s^−1 | factor by which kcat is higher than that of the Bacillus pumilus enzyme [13]: 4

OC1OC[C@@H](O[C@@H]2OC[C@@H](O)[C@H](O)[C@H]2O)[C@H](O)[C@H]1O (stereo partly drawn) [X2, 1,4-β-D-Xylobiose]
Km (SXA [4]; 100 mM succinate-NaOH, pH 5.3, 25° C. (Example 1)): 4200 µM | dissociation constant for the transition state (SXA [4]; assuming noncatalyzed rate similar to a-methylglucopyranoside): ~10^−19 | time of peak height of intermediate product, observed (SXA [4]; hydrolysis of X4, pH 5.30, 25° C.): 2940 s | time of peak height of intermediate product, observed (SXA [4]; hydrolysis of X6, pH 5.30, 25° C.): 13384 s | relative kcat values (SXA [4]): 5600 | kcat, fold larger than with 4NPX (SXA [4]; [23]): 12 fold and 13 fold | kcat/Km, fold larger than with 4NPX (SXA [4]; [23]): 2 fold | pH-independent kcat (SXA [14]): 172±2 | Km (SXA [14]; 100 mM succinate-NaOH, pH 5.3, 25° C., improved quench (Example 3)): 2060 ± 80 µM | pKa of kcat versus pH (single group) (SXA [14]; Eq. 5, I=0.3 M, 25° C.): 7.57±0.03 | pKa1 of kcat/Km versus pH (SXA [14]; Eq. 6, I=0.3 M, 25° C.): 4.86±0.06 | pKa2 of kcat/Km versus pH (SXA [14]; Eq. 6, I=0.3 M, 25° C.): 7.01±0.05 | pKa1 of 1/Km versus pH (SXA [14]; Eq. 7, I=0.3 M, 25° C.): 4.78±0.11 | pKa2 of 1/Km versus pH (SXA [14]; Eq. 7, I=0.3 M, 25° C.): 7.03±0.17 | factor by which kcat of SXA is higher than that of the Bacillus pumilus enzyme (SXA [14]; SXA pH 5.3, 25° C. vs B. pumilus pH 7.15, 25° C.): 10 | lower affinity of dianionic SXA (D14^−E186^−) than monoanionic SXA (D14^−E186^H) (SXA [14]; from pH dependencies of 1/Km): 2.9 fold and 3 fold | pH-independent kcat/Km (SXA [14]; kcat/Km versus pH, Eq. 6, I=0.3 M, 25° C. (FIG. 19)): 123±5 | kcat lower than previous determination (Example 1) (SXA [14]; pH 5.3, 25° C.): 55% | kcat/Km lower than previous determination (Example 1) (SXA [14]; pH 5.3, 25° C.): 9% | kcat, Bacillus pumilus enzyme [15]: 18 s⁻¹

OC1OC[C@@H](O[C@@H]2OC[C@@H](O)[C@H](O)[C@H]2O)[C@H](O)[C@H]1O (stereo partly drawn) [X2, 1,4-β-D-xylobiose]
kcat [16]: 18 s⁻¹ | kcat [11, 24]: 412 s⁻¹ and 412 ± 18 s⁻¹ | kcat ([11]; pH 5.3, 25° C (Example 1), approximate): approximately 410 sec^−1 | relative kcat value ([11]; pH 5.3, 25° C): 5600 | kcat relative to that of substrates X3-X6 ([11]; pH 5.3, 25° C.): 2-4 fold | kcat ratio X2 vs 4NPX [11, 23]: 12 fold and 13 fold | kcat [13, 24]: 185 ± 3 s⁻¹ | factor by which kcat is higher than that of the Bacillus pumilus enzyme [13]: 10 | affinity of dianionic SXA (D14^−E186^−), lower than that of monoanionic SXA (D14^−E186^H) ([13]; from pH dependence of 1/Km): 2.9 fold and 3 fold | kcat ([13]; pH 5.3, 25° C (improved technique), approximate): approximately 185 sec^−1 | pH-independent kcat ([13]; pH profile, I=0.3 M, 25° C): 172±2
